# Measurements published in patent US9994581B2, “Bromodomain inhibitors” (AbbVie Inc., priority 2013, dated 2018).
# Legend:
# [1] = test system: LPS induced IL-6 (Interleukin-6) production; experiment: LPS (lipopolysaccharide) induced IL-6 production mouse assay; conditions: CD1 mouse strain; oral administration one hour before LPS 2.5 mg/kg i.p.; serum IL-6 2 hours after LPS; p < 0.05
# Method: Compounds of the Examples listed in Table 2 were assayed for their ability to inhibit LPS (lipopolysaccharide) induced IL-6 (Interleukin-6) production in mice. Fox Chase SCID® female mice (Charles Rivers Labs, 8 per group) or CD1 female mice received an intraperitoneal challenge of lipopolysaccharide (2.5 mg/kg, L2630 E. coli 0111:B4) one hour after oral administration of compounds. Mice were euthanized 2 hours after lipopolysaccharide injection, blood was removed by cardiac puncture, and then the serum harvested from the blood samples was frozen at −80° C. On the day of the assay the serum samples were brought to room temperature and then diluted 1:20 in phosphate-buffered saline containing 2% bovine serum albumin. Interleukin-6 measurements were performed using a cytokine assay from Meso Scale Discovery (Gaithersburg, Md.) for mouse serum analysis according to the manufacturer's protocol and read on a SECTOR Imager 6000 (Meso Scale Discovery, Gaithersburg, Md.) instrument. Statistical analysis was performed using Prism software (version 5.0) incorporating Dunnett's one way ANOVA. The IL-6 mean and standard deviation of the group of vehicle treated animals were compared with the IL-6 mean and standard deviation of the group treated with drug.
# [2] = test system: breast cancer cell line MX-1; experiment: MX-1 cell line proliferation assay (3-day, Cell Titer Glo); type: cell-based; conditions: Homo sapiens, MX1, MX-1 cells, 72 hours, read-out: Cellular proliferation: EC50
# In short: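 MX-1 cells plated at 5000 cells/well and adhered overnight at 37°, then treated for 3 days with 10-point 3-fold dilutions (final top 3 or 1 μM). Viability by Cell Titer Glo luminescence normalized to DMSO-treated cells; EC50 from sigmoidal curve fit.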
# [3] = target: BRD4 (BDI-BDII_K57-K550) (Homo sapiens, UniProt O60885); experiment: TR-FRET bromodomain binding assay; conditions: His-tagged tandem bromodomain, Alexa647-labeled probe; Ki calculated from IC50s, probe Kd and probe concentration
SMILES,"Inhibition of LPS induced IL-6 production, % inhibition [1] [%]",EC50 [2] [nM],Ki [3] [nM]
"CCS(=O)(=O)Nc1ccc2c(c1)-c1cn(C)c(=O)cc1OCCCCc1cc(Cl)ccc1O2 [Example A-9, N-(11-chloro-2-methyl-3-oxo-2,3,6,7,8,9-hexahydrodibenzo[4,5:7,8][1,6]dioxacyclododecino[3,2-c]pyridin-17-yl)ethanesulfonamide]",83,5.69,0.93
"Cn1cc2c(cc1=O)OCCCc1cc(Cl)ccc1Oc1ccc(NS(C)(=O)=O)cc1-2 [Example A-12, N-(10-chloro-2-methyl-3-oxo-3,6,7,8-tetrahydro-2H-dibenzo[4,5:7,8][1,6]dioxacycloundecino[3,2-c]pyridin-16-yl)methanesulfonamide]",47,19.1,2.16
"CCS(=O)(=O)c1ccc2c(c1)-c1cn(C)c(=O)cc1OCCCCc1cc(Cl)ccc1O2 [Example A-13, 11-chloro-17-(ethylsulfonyl)-2-methyl-6,7,8,9-tetrahydrodibenzo[4,5:7,8][1,6]dioxacyclododecino[3,2-c]pyridin-3(2H)-one]",82,13.6,0.99
"CCS(=O)(=O)c1ccc2c(c1)-c1cn(C)c(=O)cc1OCCCCc1cc(F)cc(F)c1O2 [Example A-20, 17-(ethylsulfonyl)-11,13-difluoro-2-methyl-6,7,8,9-tetrahydrodibenzo[4,5:7,8][1,6]dioxacyclododecino[3,2-c]pyridin-3(2H)-one]",81,8.69,1.25
"CCS(=O)(=O)Nc1cnc2c(c1)-c1cn(C)c(=O)cc1OCCCCc1cc(Cl)ccc1O2 [Example A-33, N-(11-chloro-2-methyl-3-oxo-2,3,6,7,8,9-hexahydrobenzo[11,12][1,6]dioxacyclododecino[2,3-b:4,5-c′]dipyridin-17-yl)ethanesulfonamide]",74,5.68,1.45
"Cn1cc2c(cc1=O)OCCCCc1cc(Cl)ccc1Oc1ccc(CS(C)(=O)=O)cc1-2 [Example A-36, 11-chloro-2-methyl-17-((methylsulfonyl)methyl)-6,7,8,9-tetrahydrodibenzo[4,5:7,8][1,6]dioxacyclododecino[3,2-c]pyridin-3(2H)-one]",68,19.2,2.85
"CCN1CCOc2cc(=O)n(C)cc2-c2cc(NS(=O)(=O)CC)ccc2Oc2ccc(Cl)cc2C1 [Example B-1, N-(11-chloro-8-ethyl-2-methyl-3-oxo-2,3,6,7,8,9-hexahydrodibenzo[f,i]pyrido[3,4-k][1,8,4]dioxazacyclododecin-17-yl)ethanesulfonamide]",43,8.77,15.1
"CCS(=O)(=O)Nc1ccc2c(c1)-c1cn(C)c(=O)cc1OCCOCc1cc(Cl)ccc1O2 [Example B-5, N-(11-chloro-2-methyl-3-oxo-2,3,6,7-tetrahydro-9H-dibenzo[6,7:9,10][1,4,8]trioxacyclododecino[11,12-c]pyridin-17-yl)ethanesulfonamide]",61,2.79,1.19
